Assays:
[1] = Plasma protein binding, equilibrium dialysis, rat plasma; assay type: in vitro ADME; settings: Sprague Dawley, read-out: mean (±SD) percentage of plasma protein bound (converted)
Experimental: The plasma protein binding of pafolacianine was studied in vitro in fresh human, Sprague Dawley rat, and Beagle dog plasma using equilibrium dialysis. Pafolacianine was introduced into plasma samples, in duplicate, resulting in a final concentration of 5 μM. The mean (±SD) percentage of plasma protein bound pafolacianine was 99.1±0.1%, 98.6±0.1%, and 93.7±1.5% for rat, dog and human, respectively. Pafolacianine was highly bound to plasma protein in all species examined.

ovarian cancer lesion = experiment: Randomized, multicenter, open-label study: detection of ovarian cancer lesions under fluorescent light; assay type: in vivo, human
Experimental: The safety and efficacy of the compositions disclosed herein was evaluated in a randomized, multicenter, open-label study. The study enrolled 178 women diagnosed with ovarian cancer or with high clinical suspicion of ovarian cancer scheduled to undergo primary surgical cytoreduction, interval debulking, or recurrent ovarian cancer surgery. One hundred and fifty women highly suspicious for or with confirmed ovarian cancer received a composition including pafolacianine (dosed at 0.025 mg/kg at least 1 hour before initiation of fluorescence imaging). Among them, 134 women with mean age 60 (range 33 to 81) years received both normal light imaging evaluation and fluorescence imaging evaluation (the Intent-to-Image set).
The study assessed the proportion of patients with at least one evaluable ovarian cancer lesion confirmed by central pathology that was detected with compositions including pafolacianine under fluorescent light but not under normal light or palpation and not otherwise identified for resection prior to surgery. The detection proportion was estimated in women who underwent both normal light and fluorescent light (Intent-to-Image Set), see Table 1.

## CC1(C)C(=CC=C2CCCC(C=CC3=[N+](CCCCS(=O)(=O)[O-])c4ccc(S(=O)(=O)O)cc4C3(C)C)=C2Oc2ccc(CC(NC(=O)c3ccc(NCc4cnc5nc(N)[nH]c(=O)c5n4)cc3)C(=O)O)cc2)N(CCCCS(=O)(=O)O)c2ccc(S(=O)(=O)O)cc21 (stereo not drawn) [pafolacianine]
[1]
  fraction unbound at 5 μM: 0.009
Ovarian cancer lesion; detected under fluorescent light but not normal light or palpation, Intent-to-Image set N = 134, 0.025 mg/kg
  Patients with at least one confirmed ovarian cancer evaluable lesion, Proportion (%): 0.269 (26.9%)
Ovarian cancer lesion; near-infrared fluorescent light, ovarian cancer lesions confirmed by central pathology
  Patient-level false positive rate: 20.2%
